Source: article PMC7188728, “A phase I study investigation of metabolism, and disposition of [^14C]-anlotinib after an oral administration in patients with advanced refractory solid tumors” (Cancer Chemotherapy and Pharmacology, 2020)
Where a name gives a salt, the structure may show the parent alone.

Assays:
[1] = tested on: human cytochrome P450 3A4; parameters: method as in PMID 29441353; conditions: in vitro; read-out: Half maximum inhibitory concentration; cited from earlier work
[2] = tested on: advanced refractory solid tumors; test: Tumor response evaluation in patients with advanced refractory solid tumors; type: in vivo, human; conditions: six patients enrolled
[3] = Adverse events after a single dose of 14C anlotinib suspension; type: in vivo, human

Compound: COc1cc2c(Oc3ccc4[nH]c(C)cc4c3F)ccnc2cc1OCC1(N)CC1 [anlotinib, 1-[[4-(4-fluoro-2-methyl-1H-indol-5-yloxy)-6-methoxyquinolin-7-yl]oxy]methyl) cyclopropanamine dihydrochloride]
- IC50 [1]: 110 nM
- Tumor response: partial response (PR) [2]: one
- Tumor response: progressive disease (PD) [2]: one
- Alkaline phosphatase increased: number of cases of grade 1/2 (%) ([3]; D1 ~ D18, N = 6): 1 (16.67%) n (%)
- Alkaline phosphatase increased: number of cases of grade 3 (%) ([3]; D1 ~ D18, N = 6): 0 n (%)
- Anemia: number of cases of grade 1/2 (%) ([3]; D1 ~ D18, N = 6): 1 (16.67%) n (%)
- Anemia: number of cases of grade 3 (%) ([3]; D1 ~ D18, N = 6): 0 n (%)
- Aspartate aminotransferase increased: number of cases of grade 1/2 (%) ([3]; D1 ~ D18, N = 6): 0 n (%)
- Aspartate aminotransferase increased: number of cases of grade 3 (%) ([3]; D1 ~ D18, N = 6): 1 (16.67%) n (%)
- At least once (any adverse event): number of cases of grade 1/2 (%) ([3]; D1 ~ D18, N = 6): 5 (83.33%) n (%)
- At least once (any adverse event): number of cases of grade 3 (%) ([3]; D1 ~ D18, N = 6): 3 (50%) n (%)
- Constipation: number of cases of grade 1/2 (%) ([3]; D1 ~ D18, N = 6): 2 (33.33%) n (%)
- Constipation: number of cases of grade 3 (%) ([3]; D1 ~ D18, N = 6): 0 n (%)
- Cough: number of cases of grade 1/2 (%) ([3]; D1 ~ D18, N = 6): 1 (16.67%) n (%)
- Cough: number of cases of grade 3 (%) ([3]; D1 ~ D18, N = 6): 0 n (%)
- Diarrhea: number of cases of grade 1/2 (%) ([3]; D1 ~ D18, N = 6): 1 (16.67%) n (%)
- Diarrhea: number of cases of grade 3 (%) ([3]; D1 ~ D18, N = 6): 0 n (%)
- Hemoptysis: number of cases of grade 1/2 (%) ([3]; D1 ~ D18, N = 6): 0 n (%)
- Hemoptysis: number of cases of grade 3 (%) ([3]; D1 ~ D18, N = 6): 0 n (%)
- Hypertriglyceridemia: number of cases of grade 1/2 (%) ([3]; D1 ~ D18, N = 6): 1 (16.67%) n (%)
- Hypertriglyceridemia: number of cases of grade 3 (%) ([3]; D1 ~ D18, N = 6): 0 n (%)
- Hypoalbuminemia: number of cases of grade 1/2 (%) ([3]; D1 ~ D18, N = 6): 3 (50%) n (%)
- Hypoalbuminemia: number of cases of grade 3 (%) ([3]; D1 ~ D18, N = 6): 0 n (%)
- Hypocalcemia: number of cases of grade 1/2 (%) ([3]; D1 ~ D18, N = 6): 1 (16.67%) n (%)
- Hypocalcemia: number of cases of grade 3 (%) ([3]; D1 ~ D18, N = 6): 0 n (%)
- Hypophosphatemia: number of cases of grade 1/2 (%) ([3]; D1 ~ D18, N = 6): 1 (16.67%) n (%)
- Hypophosphatemia: number of cases of grade 3 (%) ([3]; D1 ~ D18, N = 6): 1 (16.67%) n (%)
- Hypothyroidism: number of cases of grade 1/2 (%) ([3]; D1 ~ D18, N = 6): 1 (16.67%) n (%)
- Hypothyroidism: number of cases of grade 3 (%) ([3]; D1 ~ D18, N = 6): 0 n (%)
- Increased alanine aminotransferase: number of cases of grade 1/2 (%) ([3]; D1 ~ D18, N = 6): 1 (16.67%) n (%)
- Increased alanine aminotransferase: number of cases of grade 3 (%) ([3]; D1 ~ D18, N = 6): 1 (16.67%) n (%)
- Increased blood bilirubin: number of cases of grade 1/2 (%) ([3]; D1 ~ D18, N = 6): 1 (16.67%) n (%)
- Increased blood bilirubin: number of cases of grade 3 (%) ([3]; D1 ~ D18, N = 6): 1 (16.67%) n (%)
- Increased lactate dehydrogenase: number of cases of grade 1/2 (%) ([3]; D1 ~ D18, N = 6): 1 (16.67%) n (%)
- Increased lactate dehydrogenase: number of cases of grade 3 (%) ([3]; D1 ~ D18, N = 6): 0 n (%)
- Increased lipase: number of cases of grade 1/2 (%) ([3]; D1 ~ D18, N = 6): 2 (33.33%) n (%)
- Increased lipase: number of cases of grade 3 (%) ([3]; D1 ~ D18, N = 6): 2 (33.33%) n (%)
- Increased γ-glutamyl transpeptidase: number of cases of grade 1/2 (%) ([3]; D1 ~ D18, N = 6): 1 (16.67%) n (%)
- Increased γ-glutamyl transpeptidase: number of cases of grade 3 (%) ([3]; D1 ~ D18, N = 6): 1 (16.67%) n (%)
- Insomnia: number of cases of grade 1/2 (%) ([3]; D1 ~ D18, N = 6): 2 (33.33%) n (%)
- Insomnia: number of cases of grade 3 (%) ([3]; D1 ~ D18, N = 6): 0 n (%)
- Liver function damage: number of cases of grade 1/2 (%) ([3]; D1 ~ D18, N = 6): 0 n (%)
- Liver function damage: number of cases of grade 3 (%) ([3]; D1 ~ D18, N = 6): 1 (16.67%) n (%)
- Proteinuria: number of cases of grade 1/2 (%) ([3]; D1 ~ D18, N = 6): 1 (16.67%) n (%)
- Proteinuria: number of cases of grade 3 (%) ([3]; D1 ~ D18, N = 6): 0 n (%)
- Rapid atrial fibrillation: number of cases of grade 1/2 (%) ([3]; D1 ~ D18, N = 6): 1 (16.67%) n (%)
- Rapid atrial fibrillation: number of cases of grade 3 (%) ([3]; D1 ~ D18, N = 6): 0 n (%)
- Sinus bradycardia: number of cases of grade 1/2 (%) ([3]; D1 ~ D18, N = 6): 1 (16.67%) n (%)
- Sinus bradycardia: number of cases of grade 3 (%) ([3]; D1 ~ D18, N = 6): 0 n (%)
- Sinus tachycardia: number of cases of grade 1/2 (%) ([3]; D1 ~ D18, N = 6): 1 (16.67%) n (%)
- Sinus tachycardia: number of cases of grade 3 (%) ([3]; D1 ~ D18, N = 6): 0 n (%)
- Stomachache: number of cases of grade 1/2 (%) ([3]; D1 ~ D18, N = 6): 1 (16.67%) n (%)
- Stomachache: number of cases of grade 3 (%) ([3]; D1 ~ D18, N = 6): 0 n (%)
- Alkaline phosphatase increased: number of cases of grade 1/2 (%) ([3]; Research process, N = 6): 1 (16.67%) n (%)
- Alkaline phosphatase increased: number of cases of grade 3 (%) ([3]; Research process, N = 6): 0 n (%)
- Anemia: number of cases of grade 1/2 (%) ([3]; Research process, N = 6): 1 (16.67%) n (%)
